Assay results as given in ChEMBL document CHEMBL1201862, “PubChem BioAssay data set” (2004).
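These data come from cells grown in 96-well plates and exposed to compound for 48 hours at five concentrations. Abbreviation: GI50, concentration required for 50% inhibition of growth.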 Active and inactive are the calls of the source. Cut-off read from the data, not from the text of the source: active = GI50 up to about 1.1 µM and inactive = higher.

Key:
Test in all cases: NCI tumour cell line growth inhibition, 48 h
A498 = test system: A498
COLO 205 = test system: COLO 205
HCT-116 = test system: HCT-116
HCT-15 = test system: HCT-15
K562 = test system: K562
KM12 = test system: KM12
M14 = test system: M14
MOLT-4 = test system: MOLT-4
Malme-3M = test system: Malme-3M
NCI-H226 = test system: NCI-H226
NCI-H23 = test system: NCI-H23
NCI-H460 = test system: NCI-H460
NCI-H522 = test system: NCI-H522
NCI/ADR-RES = test system: NCI/ADR-RES
OVCAR-4 = test system: OVCAR-4
OVCAR-8 = test system: OVCAR-8
RPMI-8226 = test system: RPMI-8226
RXF 393 = test system: RXF 393
SK-MEL-2 = test system: SK-MEL-2
SNB-75 = test system: SNB-75

Row | Structure (SMILES) | GI50 (A498) | GI50 (COLO 205) | GI50 (HCT-116) | GI50 (HCT-15) [µM] | GI50 (K562) | GI50 (KM12) | GI50 (M14) | GI50 (MOLT-4) | GI50 (Malme-3M) | GI50 (NCI-H226) | GI50 (NCI-H23) | GI50 (NCI-H460) | GI50 (NCI-H522) | GI50 (NCI/ADR-RES) | GI50 (OVCAR-4) | GI50 (OVCAR-8) | GI50 (RPMI-8226) | GI50 (RXF 393) | GI50 (SK-MEL-2) | GI50 (SNB-75)
1 | COc1cccc2c(Nc3ccc(S(=O)(=O)NC(C)=O)cc3)c3ccc([N+](=O)[O-])cc3nc12 | 56.8 µM (inactive) | 28.5 µM (inactive) | 30.5 µM (inactive) | 47 | 22 µM (inactive) | 11 µM (inactive) | 53.1 µM (inactive) | 17.2 µM (inactive) | 33.9 µM (inactive) | 29.2 µM (inactive) | 35.2 µM (inactive) | 32.3 µM (inactive) | 17.5 µM (inactive) | > 57.1 µM (inactive) | 97.7 µM (inactive) | 27.7 µM (inactive) | 16.3 µM (inactive) | 97.9 µM (inactive) | 49.9 µM (inactive) | 8.28 µM (inactive)
2 | CC(=O)/N=C1/N(/C=C2\C(=O)Oc3ccccc3C2=O)C(=O)/C(=C/c2ccc(Cl)cc2Cl)N1C | 19.2 µM (inactive) | > 100 µM (inactive) | 81.1 µM (inactive) | > 100 | 39.4 µM (inactive) | 66.8 µM (inactive) | > 100 µM (inactive) | 40.7 µM (inactive) | > 100 µM (inactive) | > 100 µM (inactive) | > 100 µM (inactive) | > 10 µM (inactive) | 94 µM (inactive) | > 100 µM (inactive) | > 100 µM (inactive) | > 100 µM (inactive) | 26.4 µM (inactive) | > 100 µM (inactive) | 71.4 µM (inactive) | 18.7 µM (inactive)
3 | O=C(N/N=C\c1ccc(Cl)cc1)Nc1ccc2ccccc2c1 | 30.9 µM (inactive) | > 100 µM (inactive) | 53.6 µM (inactive) | > 100 | > 100 µM (inactive) | 79.3 µM (inactive) | 59.2 µM (inactive) | > 100 µM (inactive) | 32.8 µM (inactive) | > 100 µM (inactive) | 76.4 µM (inactive) | 28.5 µM (inactive) | 38.9 µM (inactive) | 49.3 µM (inactive) | 19.8 µM (inactive) | 27.4 µM (inactive) | 70.8 µM (inactive) | 27.6 µM (inactive) | 80.4 µM (inactive) | 30.5 µM (inactive)
4 | O=C(c1ccccc1)c1ccc2nc3n(c2c1)C(c1c(F)cccc1F)SC3 (stereo not given) | 3.7 µM (inactive) | 4 µM (inactive) | 3.26 µM (inactive) | 3.16 | 3.31 µM (inactive) | 2.82 µM (inactive) | 3.46 µM (inactive) | 2.74 µM (inactive) | 5.68 µM (inactive) | 30.6 µM (inactive) | 9.4 µM (inactive) | 3.98 µM (inactive) | 2.01 µM (inactive) | 2.99 µM (inactive) | 7.8 µM (inactive) | 9.33 µM (inactive) | 4.62 µM (inactive) | 13.2 µM (inactive) | 8.3 µM (inactive) | 4.17 µM (inactive)
5 | CC(C)(C)OC(=O)NCCCCCCC(=O)Cc1ccccc1 | > 100 µM (inactive) | 75.2 µM (inactive) | 84.3 µM (inactive) | > 100 | > 100 µM (inactive) | > 100 µM (inactive) | > 100 µM (inactive) | 59 µM (inactive) | > 100 µM (inactive) | > 100 µM (inactive) | > 100 µM (inactive) | > 100 µM (inactive) | > 100 µM (inactive) | > 100 µM (inactive) | > 100 µM (inactive) | > 100 µM (inactive) | > 100 µM (inactive) | > 100 µM (inactive) | > 100 µM (inactive) | > 100 µM (inactive)
6 | COC(=O)C1=C(C)NC2(C)OC(C)(O)C(C(C)=O)C12C(C)=O (stereo not given) | 60.5 µM (inactive) | 46.8 µM (inactive) | > 100 µM (inactive) | > 100 | > 100 µM (inactive) | > 100 µM (inactive) | 60.5 µM (inactive) | > 100 µM (inactive) | 23.4 µM (inactive) | 16.5 µM (inactive) | > 100 µM (inactive) | > 100 µM (inactive) | > 100 µM (inactive) | > 100 µM (inactive) | > 100 µM (inactive) | > 100 µM (inactive) | 61.1 µM (inactive) | 57.7 µM (inactive) | 21.4 µM (inactive) | 71.8 µM (inactive)
7 | CC(=O)OCC12C(OC(C)=O)C[C@@H](C)C3(CC(c4ccoc4)OC3=O)C1CCC(OC(C)=O)C21CO1 (stereo not given in full) | > 100 µM (inactive) | > 100 µM (inactive) | > 100 µM (inactive) | > 100 | > 100 µM (inactive) | > 100 µM (inactive) | > 100 µM (inactive) | > 100 µM (inactive) | > 100 µM (inactive) | > 100 µM (inactive) | > 100 µM (inactive) | > 100 µM (inactive) | > 100 µM (inactive) | > 100 µM (inactive) | > 100 µM (inactive) | > 100 µM (inactive) | > 100 µM (inactive) | > 100 µM (inactive) | > 100 µM (inactive) | > 100 µM (inactive)
8 | CN1[C@@H]2CCCC[C@H]2N(C)P1(=O)C(O)/C=C/c1ccccc1 (stereo not given in full) | > 100 µM (inactive) | > 100 µM (inactive) | > 100 µM (inactive) | > 100 | > 100 µM (inactive) | > 100 µM (inactive) | > 100 µM (inactive) | > 100 µM (inactive) | > 100 µM (inactive) | > 100 µM (inactive) | > 100 µM (inactive) | > 100 µM (inactive) | > 100 µM (inactive) | > 100 µM (inactive) | > 100 µM (inactive) | > 100 µM (inactive) | > 100 µM (inactive) | > 100 µM (inactive) | > 100 µM (inactive) | > 100 µM (inactive)
9 | CC(=O)/C(C)=N/NC(=O)c1ccccc1O | 47.9 µM (inactive) | > 10 µM (inactive) | > 10 µM (inactive) | 97.5 | 37 µM (inactive) | > 10 µM (inactive) | > 10 µM (inactive) | 31.7 µM (inactive) | > 10 µM (inactive) | > 10 µM (inactive) | > 10 µM (inactive) | > 10 µM (inactive) | > 100 µM (inactive) | > 100 µM (inactive) | > 10 µM (inactive) | > 10 µM (inactive) | > 10 µM (inactive) | > 10 µM (inactive) | > 10 µM (inactive) | > 10 µM (inactive)
10 | CN1CCN(c2ncc3c(n2)sc2c(=O)n(-c4ccccc4)cnc23)CC1 | > 100 µM (inactive) | > 100 µM (inactive) | > 100 µM (inactive) | > 100 | > 100 µM (inactive) | > 100 µM (inactive) | > 100 µM (inactive) | > 100 µM (inactive) | > 100 µM (inactive) | > 100 µM (inactive) | > 100 µM (inactive) | > 100 µM (inactive) | > 100 µM (inactive) | > 100 µM (inactive) | > 100 µM (inactive) | > 100 µM (inactive) | > 100 µM (inactive) | > 100 µM (inactive) | > 100 µM (inactive) | > 100 µM (inactive)
11 | Nc1ccn(C=C=CCO)c(=O)n1 | > 100 µM (inactive) | > 100 µM (inactive) | > 100 µM (inactive) | > 100 | > 100 µM (inactive) | > 100 µM (inactive) | > 100 µM (inactive) | 5.85 µM (inactive) | > 100 µM (inactive) | > 100 µM (inactive) | > 100 µM (inactive) | > 100 µM (inactive) | > 77.3 µM (inactive) | > 100 µM (inactive) | > 100 µM (inactive) | 229 µM (inactive) | 589 µM (inactive) | > 100 µM (inactive) | > 100 µM (inactive) | > 93.8 µM (inactive)
